Experimental data as given in patent publication US12318359B2, “Combination methods and compositions including sleep therapeutics for treating mood” (priority 2012, dated 2025).

Test system: depression
Test: Beck Depression Inventory II score, case study of a depressed patient
Format: in vivo, human
Conditions: person; after three months of fluoxetine monotherapy (20 mg daily raised to 60 mg daily); score at first visit 28
Description: “Depression symptoms rating scale” refers to any one of a number of standardized questionnaires, clinical instruments, or symptom inventories utilized to measure symptoms and symptom severity in depression. Such rating scales are often used in clinical studies to define treatment outcomes, based on changes from the study's entry point(s) to endpoint(s). Such depression symptoms rating scales include, but are not limited to, The Quick Inventory of Depressive-Symptomatology Self-Report (QIDS-SR16), the 17-Item Hamilton Rating Scale of Depression (HRSD17), the 30-Item Inventory of Depressive Symptomatology (IDS-C30), or The Montgomery-Asperg Depression Rating Scale (MADRS) and […] Depression Inventory II. Such ratings scales may involve patient self-report or be clinician rated. A 50% or greater reduction in a depression ratings scale score over the course of a clinical trial (starting point to endpoint) is typically considered a favorable response for most depression symptoms rating scales. “Remission” in clinical studies of depression often refers to achieving at, or below, a particular numerical rating score on a depression symptoms rating scale, i.e., less than or equal to 7 on the HRSD17; or less than or equal to 5 on the QIDS-SR16; or less than or equal to 10 on the MADRS or less than or equal to 9 on the Beck Depression Inventory II. […]

CNCCC(Oc1ccc(C(F)(F)F)cc1)c1ccccc1 (stereo not shown) [fluoxetine]
Beck Depression Inventory II score: 26
